Source: publication PMC7615676, “Short-course combination treatment for experimental chronic Chagas disease” (Science translational medicine, 2023)
Values after ≈ are worked out from the molar mass of the structure shown. Values joined by “and” are separate entries in the source; they are usually repeats but may differ in a detail not shown here. Identical values can stand only once.

What was measured:
[1] = target: T. cruzi complex III (epimastigote lysates) (Trypanosoma cruzi, UniProt Q9T479); assay: T. cruzi complex III assay; type: biochemical; conditions: decylubiquinol substrate
Chain of T. cruzi complex III (epimastigote lysates) (Q9T479 entry or part of it, one chain of several): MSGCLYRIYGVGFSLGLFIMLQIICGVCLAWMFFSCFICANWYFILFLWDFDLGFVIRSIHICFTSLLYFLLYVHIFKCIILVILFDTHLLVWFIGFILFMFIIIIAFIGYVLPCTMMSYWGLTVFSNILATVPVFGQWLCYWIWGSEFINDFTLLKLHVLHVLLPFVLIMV
Protocol: Complex III activity within these lysates was monitored in the presence and absence of compound 3, compound 5 and related analogues from this series, using decylubiquinol as a pseudo-substrate ([43]).
Measurement of complex III activity and inhibition were performed as described previously ([43]).

[2] = intrinsic clearance in human liver microsomes; type: in vitro ADME; conditions: for half-life at 0.5 μM: read-out: T 1/2 human
Protocol: Immediately at time zero and at several serial times points up to 30 min, an aliquot of the incubation mixture was removed and mixed with acetonitrile to stop the reaction. Internal standard was added to all samples, the samples centrifuged to sediment precipitated protein and the plates then sealed prior to HPLC-MS/MS analysis. Metabolic stability expressed as a percentage of the parent molecule was calculated using the peak area ratio (compound peak area/internal standard peak area) of different compounds remaining after each incubation time compared to time zero of the incubation. The half-life (t1/2) was calculated using the following equation: t1/2=−ln(2)/k, where k is the turn-over rate constant of the ln (percent remaining) vs time regression.
CLint was calculated from the half-life (t1/2) using the following equations:
CLint (ml/min/g liver) = (0.693/(t1/2) x (ml of incubation/mg microsomal protein) x (mg microsomal protein/g liver).

[3] = chromatographic LogD assay; type: physicochemical; conditions: reversed phase HPLC column (Gemini NX C18), pH 7.4; read-out: Chrom logD pH 7.4
Protocol: The chromatographic hydrophobicity index (CHI) values were measured using reversed phase HPLC column (50 mm × 2 mm, 3 μm Gemini NX C18, Phenomenex, U.K.) with fast acetonitrile gradient at starting mobile phase at pH 7.4. CHI values were derived directly from the gradient retention times by using a calibration line obtained for standard compounds. The CHI value approximates to the volume % organic concentration when the compound elutes. CHI was linearly transformed into ChromlogD by least-squares fitting of experimental CHI values to calculated log P (ClogP) values for over 20K research compounds using the following formula: ChromlogD = 0.0857CHI − 2.00. The average error of the assay is ±3 CHI units or ± 0.25 ChromlogD.

[4] = tested on: chronic T. cruzi infection (CL Brener) in BALB/c mice; assay: bioluminescent mouse model of chronic Chagas disease; type: in vivo, Trypanosoma cruzi
Protocol: Compound 2 was evaluated in a bioluminescent mouse model of Chagas disease designed to mimic chronic infections. This model successfully differentiates the clinically used drugs from the clinically invalidated CYP51 inhibitors ([21]). Key features of this model include immunosuppression of mice following cessation of treatment to allow detection of parasite relapses, and ex vivo bioluminescence imaging that allows tissue-specific visualization of parasites. Treatments are considered efficacious if there is no evidence of bioluminescence during in vivo (mouse) and ex vivo (organ/tissue) imaging following immunosuppression ([38]). Under these experimental conditions, compound 2 was able to prevent parasite relapse in 2 of the 6 mice treated orally twice daily for 10 days at 50 mg/kg (Table S1). Increasing the dose to 100 mg/kg or extending treatment duration to 21 days provided similar partial efficacy rates.
Experiments followed a similar protocol to that described in ([21]). All animals were female (BALB/cAnNCrlC mice, 6-8 weeks old, strain code: 028, supplier: Charles River (UK)). We have previously shown that there are no differences in the bioluminescence profiles between infected males and females ([77]). Animals were maintained under specific pathogen-free conditions in individually ventilated cages. They experienced a 12-hour light/dark cycle, with access to food and water ad libitum. Mice were randomly selected and distributed into cages on arrival day by a Named Animal Care and Welfare Officer (NACWO), at LSHTM biological service facility (BSF). For efficacy experiments animals were randomly selected from the cages and ear/tail tagged on the infection day, starting from number 1. The same mouse ID was kept until the experimental endpoint. Mice were infected by i.p injection with 1x10^3 trypomastigotes derived from SCID mouse blood ([67]). To confirm infection, mice were imaged around the peak of parasite load. […] Treatment initiated in the chronic stage of infection ranging between 90 and 127 days post-infection. Drugs were administered by oral gavage (~200 μl), and vehicle only (0.5% w/v hydroxypropylmethylcellulose with 0.4% v/v Tween 80 and 0.5% v/v benzyl alcohol) was administered to control mice. Total number of animals for each study arm is shown in the relevant figures. To detect residual infection, mice were immunosuppressed using cyclophosphamide (at 200 mg/kg) by ip injection every 4 days for a maximum of three doses. For in vivo imaging, mice were injected ip with 150 mg/kg D-luciferin in Dulbecco’s Ca^2+/Mg^2+-free PBS, then anaesthetized using 2.5% (v/v) isofluorane in oxygen. Images were obtained using an IVIS Lumina II system (Caliper Life Science) 10−20 min after D-luciferin administration. The detection threshold was established from uninfected mice. Organs/tissue samples were assessed by ex vivo imaging as described previously ([21]). The limit of detection in this system is less than 20 parasites ([29]).

[5] = plasma protein binding, equilibrium dialysis; type: in vitro ADME; conditions: pH 7.4, mouse plasma, read-out: Mouse PPB % (converted)
Protocol: In vitro plasma protein binding was measured in mouse and human plasma using equilibrium dialysis at a nominal concentration of 2 μM. The RED inserts were placed in the 48 wells of the Teflon Plate (Pierce). Samples were prepared by mixing the test compound with plasma at the appropriate concentrations to yield a final drug concentration of 2 μM. Triplicate aliquots of plasma containing compounds at a concentration of 2 μM were pipetted to plasma side (red) of the insert, and PBS (phosphate buffered saline) pH 7.4 was placed into the receiver side (white) of the insert. The plate was covered with the sealing tape and incubated in a 37 °C orbital shaker water bath at approximately 150 rpm for 4 h. Following incubation, samples were prepared in a mixed matrix configuration. Aliquots of samples were pipetted into 96-well plates, and precipitation buffer was added to protein precipitate the samples. Samples were vortexed to mix, then centrifuged for 15 min at 3700 rpm and 4 °C. The supernatant was assayed directly by LC−MS/MS. The following equation was used to calculate the percentage bound drug fraction using this equilibrium dialysis method
% unbound = (buffer chamber]/[plasma chamber) x100

[6] = kinetic aqueous solubility (CLND); type: physicochemical; conditions: phosphate buffered saline, aqueous buffer, kinetic from dmso stock, pH 7.4
Protocol: The eluent is quantified by suitably calibrated flow injection CLND. This assay has a dynamic range between the lower detection limit of 1 and 500 μM, governed by the protocol’s 1:20 dilution into pH 7.4 phosphate buffer solution from nominal 10 mM DMSO stock.

Row | Compound | IC50 [1] | Cl int human [2] | half-life at 0.5 μM [2] | chromatographic logD [3] | No. cured/ no. tested ([4]; 50 mg/kg bid oral, 10 days) | No. cured/ no. tested ([4]; 50 mg/kg bid oral, 21 days) | No. cured/ no. tested ([4]; 100 mg/kg bid oral, 10 days (changed to once daily after day 1)) | toxicity in infected mice ([4]; 100 mg/kg bid, after first day of treatment) | fraction unbound at 4 h, 2 μM [5] | solubility at 1 h [6] | No. cured/ no. tested ([4]; 50 mg/kg bid oral, 20 days (changed to 11 bid + 9 qd)) | tolerability in infected mice ([4]; 50 mg/kg bid, 20-day regimen) | No. cured/ no. tested ([4]; 100 mg/kg qd oral, 10 days) | No. cured/ no. tested ([4]; 100 mg/kg qd oral, 20 days)
1 | COc1cc(F)ccc1-c1c(C)[nH]c2nc(N)nc(C)c12 [Compound 2, 5-(4-Fluoro-2-methoxyphenyl)-4,6-dimethyl-7H-pyrrolo[2,3-d]pyrimidin-2-amine] | 8 ± 1 nM | 0.6 ml/min/g liver | 1.6 h | 3.4 | 2 of the 6 and 2/6 | 2/6 | 2/4 | two mice were culled due to toxicity | 0.18 | 117 µg/mL (≈ 409 µM) |  |  |  | 
2 | COc1ccc(-c2c(C)[nH]c3nc(N)nc(C)c23)c(OC)c1 [Compound 4, 5-(2,4-Dimethoxyphenyl)-4,6-dimethyl-7H-pyrrolo[2,3-d]pyrimidin-2-amine] | 6 ± 1 nM | 0.8 ml/min/g liver | 1.1 h | 3.1 |  |  |  |  | 0.22 | 137 µg/mL (≈ 459 µM) |  |  |  | 
3 | COc1cc(Cl)ccc1-c1c(C)[nH]c2nc(N)nc(C)c12 [Compound 3, 5-(4-Chloro-2-methoxyphenyl)-4,6-dimethyl-7H-pyrrolo[2,3-d]pyrimidin-2-amine] | 2 ± 0.3 nM | 0.4 ml/min/g liver | > 2.32 h | 4.2 | 4/6 |  |  |  | 0.03 | 103 µg/mL (≈ 340 µM) | 2/6 | tolerability issues |  | 
4 | O=C(Cn1ccnc1[N+](=O)[O-])NCc1ccccc1 [Benznidazole, reference compound] |  |  |  | 2.3 |  |  |  |  |  | 77 µg/mL (≈ 296 µM) |  |  | 3/3 | 6/6
